Measurements: ChEMBL document CHEMBL5252644, “Discovery of SYD5115, a novel orally active small molecule TSH-R antagonist” (Bioorg Med Chem, 2023)

How the values were obtained:
[1] = AUC (0-infinity) in Wistar Han rat at 2 mg/kg,iv administrated for 24 hrs by LC-MS/MS analysis; assay type: ADME, organism-based; design: time 24 hrs, dose 2 mg/kg, route iv; conditions: in vivo
[2] = Cmax in Wistar Han rat at 5 mg/kg,po administrated for 24 hrs by LC-MS/MS analysis; assay type: ADME, organism-based; design: dose 5 mg/kg, time 24 hrs, route po; conditions: in vivo
[3] = Drug concentration in M22-induced Wistar rat plasma at 12.5 micromol/kg,po measured upto 24 hrs by LC-MS/MS analysis; assay type: ADME, cell-free; conditions: dose 12.5 µmol/kg
[4] = Oral bioavailability in Wistar Han rat at 5 mg/kg administrated for 24 hrs by LC-MS/MS analysis; assay type: ADME, organism-based; conditions: in vivo
[5] = Volume of distribution at steady state in Wistar Han rat at 2 mg/kg,iv administrated for 24 hrs by LC-MS/MS analysis; assay type: ADME, organism-based; conditions: in vivo, read-out: Vdss
[6] = AUC (0-infinity) in Wistar Han rat at 5 mg/kg,po administrated for 24 hrs by LC-MS/MS analysis; assay type: ADME, organism-based; design: time 24 hrs, dose 5 mg/kg, route po; conditions: in vivo
[7] = Tmax in Wistar Han rat at 5 mg/kg,po administrated for 24 hrs by LC-MS/MS analysis; assay type: ADME, organism-based; conditions: in vivo
[8] = Drug concentration in M22-induced Wistar rat plasma at 12.5 to 100 micromol/kg,po measured upto 24 hrs by LC-MS/MS analysis; assay type: ADME, cell-free; conditions: dose 12.5-100 µmol/kg

Drug uptake [3] | Drug uptake [8] | SMILES | AUC(0-inf) [1] [ng·h/mL] | Cmax [2] [ng/mL] | bioavailability [4] [%] | Vd [5] [L/kg] | AUC(0-inf) [6] [ng·h/mL] | Tmax [7] [h]
Not Active | Active | CC(=O)N1c2cnc(NC(=O)O[C@@H](C)C(C)(C)C)nc2C2(CCC(F)(F)CC2)C1(C)C | 617 | 145 | 47 | 8.76 | 709 | 1
– | – | CC(=O)N1CCC(C)(c2ccccc2)c2cc(NC(=O)CCc3cccc(C(F)(F)F)c3)ccc21 (racemic) | 694 | 52 | 8 | 2.41 | 141 | 1
